# Test results from US20160262390A1, “FIELD APPLICATION OF SUGARS TO INCREASE CROP YIELD” (Minn-Dak Farmers Cooperative, priority 2015, published 2016).
# Key:
# [1] = system: soybeans; assay: Pre-planting sugar application on soybeans, Foxhome; assay type: in vivo, soybean; settings: for Yield / Yield Increase Compared to Check: MN
# Protocol: (§1) The field trials were conducted simultaneously in two different planting locations for each of the crops. One location was near the community of Foxhome in Wilkin County, Minnesota (hereafter referred to as “Foxhome”) while the second location was near the community of Hickson in Cass County, North Dakota (hereafter referred to as “Hickson”). The Foxhome and Hickson locations are on opposite sides of the Red River along the border of Minnesota and North Dakota and separated by a distance exceeding 40 miles. Generally, the Foxhome location has heavier clay loam soil conditions while Hickson has sandy loam soil conditions.
# (§2) At each of the Foxhome and Hickson locations, a total of thirty two (32) treatments were conducted for each crop (sugarbeets, soybeans, corn, wheat). Each treatment was replicated four times arranged in a Randomized Complete Block (RCB) Design in the same field. Each replication consisted of a plot measuring twenty five (25) feet in length and eleven (11) feet in width. In selecting the particular seed types for evaluation, popular commercial varieties to the region were utilized. For the row crops (sugarbeets, soybeans, corn) each replication included a width of six (6) rows with twenty two (22) inch row spacing and having a row length of twenty five (25) feet. The wheat was planted in accordance with standard commercial practices. To reduce/eliminate any treatment impacts between adjacent plots for the crops, only the four (4) interior rows of each plot were treated and evaluated for row crops, while for wheat, only the interior 7.33 feet of each plot were treated and evaluated. With the exception of the treatment program applied to the individual plots, which will be discussed below, conventional commercial growing practices for each planting location were otherwise followed during the field trials. While the individual plots at the same location, Hickson or Foxhome, experienced essentially the same growing conditions throughout the season, there were various differences associated with localized precipitation, general growing conditions, soil classification and the like, which contributed to performance differences between the Hickson and Foxhome locations.
# (§3) The treatment regimen at each location for each of the tested crops included two (2) untreated treatments (Treatments 31 and 32) in which no sugar was applied and constitute the control elements. […] Six (6) treatments (Treatments 13-18) included the liquid application of high fructose corn syrup (hereafter “HFCS”) at varying rates. Six treatments (Treatments 19-24) included the liquid application of dextrose (hereafter “LIQDEX”) at varying rates. Six (6) treatments (Treatments 25-30) included the application of powdered cellulose (hereafter “POWCEL”) at varying rates. For the sugar applied in a solid form, granulated or powdered, field application was conducted via conventional broadcast spreading. For the sugar applied in a liquid form, a liquid concentrate was mixed and diluted with water in a tank and a conventional sprayer was configured such that the liquid was sprayed so as to have the same sugar equivalent (measured in pounds/per acre) as the sugar in solid form. Regardless of whether the sugar was applied as a solid or liquid, the sugar was applied directly onto the soil before spring tillage, lightly worked into the ground and followed by planting of the crop seed in the treated ground. A summary of application rates for each plot treatments are contained in Table 7 below and were used consistently with each of the crops (sugarbeets, soybeans, corn, wheat).
# (§4) To test the impact of pre-planting application rates and sugar source on soybeans, identical field trials using Syngenta brand soybean seed were conducted at the Foxhome and Hickson locations. Planting of the soybean seed and harvest of the soybeans were conducted on approximately the same dates so as to have essentially the same growing season. […]
# [2] = system: corn; assay: Pre-planting sugar application on corn, Foxhome; assay type: in vivo; settings: for Yield / Yield Increase Compared to Check Average: MN
# Protocol: as §1, §2, §3
# To test the impact of pre-planting application rates and sugar source on corn, identical field trials using Peterson Farms brand corn seed were conducted at the Foxhome and Hickson locations. Planting of the corn seed and harvest of the corn were conducted on the same dates so as to have essentially the same growing season. […]
# [3] = system: soybeans; assay: Pre-planting sugar application on soybeans, Hickson; assay type: in vivo, soybean; settings: for Yield / Yield Increase Compared to Check Average: ND
# Protocol: as §1, §2, §3, §4
# [4] = system: sugarbeets; assay: Pre-planting sugar application on sugarbeets, Foxhome; assay type: in vivo, sugarbeet; settings: for Recoverable Sugar Yield / Recoverable Sugar Yield Increase Compared to Check Average / Sugarbeet Yield: MN
# Protocol: as §1
# as §2, with “trials.” for “trials. While the individual plots at the same location, Hickson or Foxhome, experienced essentially the same growing conditions throughout the season, there were various differences associated with localized precipitation, general growing conditions, soil classification and the like, which contributed to performance differences between the Hickson and Foxhome locations.”
# as §3
# To test the impact of pre-planting application rates and sugar source on sugarbeets, identical field trials using Crystal® brand ACH 260 sugarbeet seed were conducted at the Foxhome and Hickson locations. Planting of the sugarbeet seed and harvest of the sugarbeets were conducted on as close to the same dates as practical so as to have essentially the same length growing season.
# [5] = six rates (25-250 pounds/Acre) per sugar, thirty in all
smiles,measurement,setting,value
"OC[C@H]1O[C@@](CO)(O[C@H]2O[C@H](CO)[C@@H](O)[C@H](O)[C@H]2O)[C@@H](O)[C@@H]1O [GS, sucrose]",Yield,[1]; pre-planting 25 pounds/Acre,70.03 Bushels/Acre
same,Yield Increase Compared to Check,[1]; pre-planting 25 pounds/Acre,2.17%
same,Yield,[1]; pre-planting 50 pounds/Acre,70.87 Bushels/Acre
same,Yield Increase Compared to Check,[1]; pre-planting 50 pounds/Acre,3.40%
same,Yield,[1]; pre-planting 100 pounds/Acre,70.78 Bushels/Acre
same,Yield Increase Compared to Check,[1]; pre-planting 100 pounds/Acre,3.27%
same,Yield,[1]; pre-planting 150 pounds/Acre,71.45 Bushels/Acre
same,Yield Increase Compared to Check,[1]; pre-planting 150 pounds/Acre,4.25%
same,Yield,[1]; pre-planting 200 pounds/Acre,67.22 Bushels/Acre
same,Yield Increase Compared to Check,[1]; pre-planting 200 pounds/Acre,−1.93%
same,Yield,[1]; pre-planting 250 pounds/Acre,66.99 Bushels/Acre
same,Yield Increase Compared to Check,[1]; pre-planting 250 pounds/Acre,−2.26%
same,number of treatments showing yield improvement compared to check treatment 31,[1]; [5],four of the six
same,Yield,[2]; pre-planting 25 pounds/Acre,271.62 Bushels/Acre
same,Yield Increase Compared to Check Average,[2]; pre-planting 25 pounds/Acre,2.20%
same,Yield,[2]; pre-planting 50 pounds/Acre,272.13 Bushels/Acre
same,Yield Increase Compared to Check Average,[2]; pre-planting 50 pounds/Acre,2.40%
same,Yield,[2]; pre-planting 100 pounds/Acre,274.80 Bushels/Acre
same,Yield Increase Compared to Check Average,[2]; pre-planting 100 pounds/Acre,3.40%
same,Yield,[2]; pre-planting 150 pounds/Acre,263.34 Bushels/Acre
same,Yield Increase Compared to Check Average,[2]; pre-planting 150 pounds/Acre,−0.91%
same,Yield,[2]; pre-planting 200 pounds/Acre,264.61 Bushels/Acre
same,Yield Increase Compared to Check Average,[2]; pre-planting 200 pounds/Acre,−0.43%
same,Yield,[2]; pre-planting 250 pounds/Acre,260.71 Bushels/Acre
same,Yield Increase Compared to Check Average,[2]; pre-planting 250 pounds/Acre,−1.90%
same,number of treatments showing yield improvement compared to check average,[2]; [5],three of the six
same,Yield,[3]; pre-planting 25 pounds/Acre,62.54 Bushels/Acre
same,Yield Increase Compared to Check Average,[3]; pre-planting 25 pounds/Acre,1.28%
same,Yield,[3]; pre-planting 50 pounds/Acre,63.6 Bushels/Acre
same,Yield Increase Compared to Check Average,[3]; pre-planting 50 pounds/Acre,3.00%
same,Yield,[3]; pre-planting 100 pounds/Acre,62.06 Bushels/Acre
same,Yield Increase Compared to Check Average,[3]; pre-planting 100 pounds/Acre,0.50%
same,Yield,[3]; pre-planting 150 pounds/Acre,64.21 Bushels/Acre
same,Yield Increase Compared to Check Average,[3]; pre-planting 150 pounds/Acre,3.98%
same,Yield,[3]; pre-planting 200 pounds/Acre,62.15 Bushels/Acre
same,Yield Increase Compared to Check Average,[3]; pre-planting 200 pounds/Acre,0.65%
same,Yield,[3]; pre-planting 250 pounds/Acre,61.12 Bushels/Acre
same,Yield Increase Compared to Check Average,[3]; pre-planting 250 pounds/Acre,−1.02%
same,number of treatments showing yield improvement compared to check average,[3]; [5],five of the six
same,Recoverable Sugar Yield,[4]; pre-planting 25 pounds/Acre,8856 Pounds/Acre
same,Recoverable Sugar Yield Increase Compared to Check Average,[4]; pre-planting 25 pounds/Acre,3.25%
same,Sugarbeet Yield,[4]; pre-planting 25 pounds/Acre,32.03 Tons/Acre
same,Recoverable Sugar Yield,[4]; pre-planting 50 pounds/Acre,8707 Pounds/Acre
same,Recoverable Sugar Yield Increase Compared to Check Average,[4]; pre-planting 50 pounds/Acre,1.52%
same,Sugarbeet Yield,[4]; pre-planting 50 pounds/Acre,32.27 Tons/Acre
same,Recoverable Sugar Yield,[4]; pre-planting 100 pounds/Acre,8100 Pounds/Acre
same,Recoverable Sugar Yield Increase Compared to Check Average,[4]; pre-planting 100 pounds/Acre,−5.56%
same,Sugarbeet Yield,[4]; pre-planting 100 pounds/Acre,30.85 Tons/Acre
same,Recoverable Sugar Yield,[4]; pre-planting 150 pounds/Acre,9080 Pounds/Acre
same,Recoverable Sugar Yield Increase Compared to Check Average,[4]; pre-planting 150 pounds/Acre,5.86%
same,Sugarbeet Yield,[4]; pre-planting 150 pounds/Acre,31.94 Tons/Acre
same,Recoverable Sugar Yield,[4]; pre-planting 200 pounds/Acre,8345 Pounds/Acre
same,Recoverable Sugar Yield Increase Compared to Check Average,[4]; pre-planting 200 pounds/Acre,−2.70%
same,Sugarbeet Yield,[4]; pre-planting 200 pounds/Acre,30.69 Tons/Acre
same,Recoverable Sugar Yield,[4]; pre-planting 250 pounds/Acre,9002 Pounds/Acre
same,Recoverable Sugar Yield Increase Compared to Check Average,[4]; pre-planting 250 pounds/Acre,4.96%
same,Sugarbeet Yield,[4]; pre-planting 250 pounds/Acre,31.80 Tons/Acre
same,number of treatments showing yield improvement compared to check average,[4]; [5],four of the six
